Data: US4656161A, “Increasing the enteral absorbability of heparin or heparinoids” (BASF Aktiengesellschaft, priority 1983, dated 1987)

How the values were obtained:
thrombin time = test: Thrombin time after oral administration of capsules to beagles; type: in vivo, beagle dogs; details: without the addition of a surfactant
Description: (§1) A. 2 of the capsules obtained as described in Examples 1a-1d or 3a-3b (total dose 28,000 IU of heparin or 700 mg of heparinoid) were administered orally to each of a number of beagles weighing about 7 kg. The concentration of active compound in the blood of the dogs was determined before and 30 minutes, 1 hour and 2, 3, 5, 8, 14 and 24 hours after the administration of heparin. The heparin was determined in citrated plasma, using a chromogenic substrate (cf. Thromb. Res. 8 (1976), 413 and Volume 2 of Reports, Thrombosis and Hemostasis Congress, Munster, 1982, Schattauer Verlag, Stuttgart, pages 238-246). The thrombin time was also determined (cf. Kleiner Gerinnungstatus, published by Behringwerke, 1982, page 40). The heparin or heparinoid concentration (c) in the blood and the quotient T of the thrombin time of the treated animals to that of the untreated animals reached their highest values after 2 hours.
(§2) Since, in contrast to heparin, heparinoids prolong the bleeding time (in this case the thrombin time) only slightly, if at all, they are not standardized on the basis of anticoagulant activity.

[1] = Heparin/heparinoid concentration in blood after oral administration of capsules to beagles (citrated plasma, chromogenic substrate); type: in vivo, beagle dogs; details: for heparin or heparinoid concentration in the blood, without surfactant (in words): without the addition of a surfactant; for heparin level in the blood, without surfactant: in the absence of added surfactant
Description: as §1, §2

Substance	thrombin time, without surfactant (in words) (thrombin time)	heparin or heparinoid concentration in the blood, without surfactant (in words) [1]	heparin level in the blood, without surfactant [1] [IU/ml]
heparin [heparin used in Example 1b]	did not change the thrombin time	did not result in a measurable heparin or heparinoid concentration in the blood	–
heparin [heparin used in Example 1c]	no change in the thrombin time	–	0.15
sodium pentosan polysulfate [heparinoid used in Example 3a]	did not change the thrombin time	did not result in a measurable heparin or heparinoid concentration in the blood	–
heparin [heparin used in Example 1a]	did not change the thrombin time	did not result in a measurable heparin or heparinoid concentration in the blood	–
heparin [heparin used in Example 1d]	no change in the thrombin time	–	0.25
mucopolysaccharide polysulfate [heparinoid used in Example 3b]	did not change the thrombin time	did not result in a measurable heparin or heparinoid concentration in the blood	–
